Measured values as given in patent US9796733B2, “Imidazo-pyrazine derivatives useful as soluble guanylate cyclase activators” (Merck Sharp & Dohme Corp., priority 2014, dated 2017).

Molecular target: T1, sGC α1/β1 heterodimer (Homo sapiens, UniProt Q02108+Q02153)
T1 construct: expressed in transfected cells; host or cells: CHO-K1 (clone #7, CHO-K1/sGC)
T1 sequence (Q02108 1-690): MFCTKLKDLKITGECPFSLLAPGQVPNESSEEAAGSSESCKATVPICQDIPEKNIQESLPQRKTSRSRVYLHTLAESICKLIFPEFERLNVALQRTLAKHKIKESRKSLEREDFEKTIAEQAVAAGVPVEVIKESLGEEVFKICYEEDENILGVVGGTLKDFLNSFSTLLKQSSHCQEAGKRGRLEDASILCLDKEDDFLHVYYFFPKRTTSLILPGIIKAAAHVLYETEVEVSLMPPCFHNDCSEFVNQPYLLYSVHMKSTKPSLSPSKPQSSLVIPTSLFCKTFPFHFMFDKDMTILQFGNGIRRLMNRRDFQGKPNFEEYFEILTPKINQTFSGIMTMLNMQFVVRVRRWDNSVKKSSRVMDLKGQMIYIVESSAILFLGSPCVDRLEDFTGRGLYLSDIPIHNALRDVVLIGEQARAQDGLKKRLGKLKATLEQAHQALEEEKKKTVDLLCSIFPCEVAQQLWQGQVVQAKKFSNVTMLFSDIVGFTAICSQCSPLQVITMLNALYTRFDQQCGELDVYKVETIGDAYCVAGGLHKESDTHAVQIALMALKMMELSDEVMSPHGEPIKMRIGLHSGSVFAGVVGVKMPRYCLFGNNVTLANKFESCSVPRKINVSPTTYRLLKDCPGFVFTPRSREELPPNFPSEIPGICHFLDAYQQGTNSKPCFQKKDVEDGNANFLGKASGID
T1 sequence (Q02153 1-619): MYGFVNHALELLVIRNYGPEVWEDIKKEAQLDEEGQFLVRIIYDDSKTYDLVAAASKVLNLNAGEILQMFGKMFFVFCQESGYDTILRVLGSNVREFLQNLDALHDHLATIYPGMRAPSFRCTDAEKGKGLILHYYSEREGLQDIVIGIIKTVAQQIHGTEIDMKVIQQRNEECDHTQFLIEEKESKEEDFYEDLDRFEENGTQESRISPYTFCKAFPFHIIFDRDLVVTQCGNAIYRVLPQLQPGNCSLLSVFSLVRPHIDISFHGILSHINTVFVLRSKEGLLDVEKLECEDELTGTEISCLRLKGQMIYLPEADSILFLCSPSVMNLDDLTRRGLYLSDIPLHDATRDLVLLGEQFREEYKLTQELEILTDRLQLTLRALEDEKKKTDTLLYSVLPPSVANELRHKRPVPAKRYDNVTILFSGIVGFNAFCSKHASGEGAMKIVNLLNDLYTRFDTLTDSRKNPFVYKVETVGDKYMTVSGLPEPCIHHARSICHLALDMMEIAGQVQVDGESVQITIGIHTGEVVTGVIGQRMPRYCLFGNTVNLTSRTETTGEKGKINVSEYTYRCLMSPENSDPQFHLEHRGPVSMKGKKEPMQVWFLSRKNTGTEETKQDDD
Assay: Cell-based sGC functional assay (CASA assay): cGMP generation in CHO-K1/sGC cells, HTRF detection
Conditions: for EC50: inflection point (IP) of cGMP generation in CHO-K1/sGC cells, 4P fit, activity expressed as percentage of Compound A; for % Act.: percent activation relative to standard Compound A in CHO-K1/sGC cells; for Emax: CHO-K1, percent activation relative to standard Compound A in CHO-K1/sGC cells, read-out: % Act.
Excerpt: Biological Assay 1: Cell-Based sGC Functional Assay (CASA Assay)
sGC is a heme-containing enzyme that converts GTP to secondary messenger cGMP. Increases in cGMP levels affect several physiological processes including vasorelaxation through multiple downstream pathways. […] Heme-dependent activators (HDAs) preferentially activate sGC containing a ferrous heme group. To determine the effect of sGC activators on enzyme activity, the CASA assay was developed to monitor the generation of cGMP in a cell line that stably expresses the heterodimeric sGC protein.
A CHO-K1 cell line stably expressing the sGC α1/β1 heterodimer was generated using a standard transfection protocol. CHO-K1 cells were transfected with plasmids pIREShyghsGCal and pIRESneo-hsGCβ1 simultaneously using FUGENE reagent. Clones that stably express both subunits were selected with hygromycin and neomycin for 2 weeks. Clone #7 was chosen for the assay and was designated CHO-K1/sGC. CHO-K1/sGC cells were maintained in F-K12 medium containing 10% heat-inactivated Fetal Bovine Serum (FBS), 100 μg/mL penicillin/streptomycin, 0.5 mg/mL hygromycin and 0.25 mg/mL G418. The cells were then cryopreserved in LN2. On the day of the assay, cells thawed and resuspended in EBSS Assay Buffer (Sigma, E3024) supplemented with 5 mM MgCl2, 10 mM HEPES (4-(2-hydroxyethyl)piperazine-1-ethanesulfonic acid) and 0.05% BSA (bovine serum albumin) (EAB) and cell density was then adjusted to 4×10^5/mL with EAR IBMX (3-isobutyl-1-methylxanthin, 0.5 mM) was added to inhibit degradation of cGMP. Compounds were diluted from DMSO stock solutions and added to the assay at a final DMSO concentration of 2.5%. Cells were incubated with compounds in the presence and absence of 1 μM of Diethylenetriamine/nitric oxide adduct (DETA-NO; Sigma, 17018) for 1 hr at 37° C. At the end of the incubation period, the reaction was terminated and the cells were lysed with the detection reagents from Cisbio Kits. The level of intracellular cGMP was determined using an HTRF-based assay kit (CisBio, 62GM2PEC), which detects the displacement of a fluorescence labeled cGMP from its specific antibody. The cGMP produced by test compounds was directly compared to the maximum cGMP production (this value was set to equal 100% activation.) of the published sGC-HDA Compound A:
[drawing 597] (Example 1 in WO 2010/065275, published Jun. 10, 2010). The test compounds' activities were then expressed as a percentage of Compound A, the standard in every experiment. This percent activation was calculated either in the presence or absence of DETA-NO which was then plotted. IP and maximum fold induction was derived using ADA analysis software for 4P fit.
The compounds in the Examples of the instant invention had inflection points (IP) less than or equal to 10 μM and more particularly less than or equal to about 1 μM.

EC50	% Act.	Emax	Structure (SMILES)
12 nM	121%	–	Nc1nc(-c2cn3ccnc3c(Cc3ccc(F)cc3)n2)nc2c1C(c1ccc(Cl)cn1)(C1CC1)C(=O)N2 (single isomer, unassigned) [Example 108A, 4-amino-5-(5-chloropyridin-2-yl)-5-cyclopropyl-2-(8-(4-fluorobenzyl)imidazo[1,2-a]pyrazin-6-yl)-5H-pyrrolo[2,3-d]pyrimidin-6(7H)-one]
16 nM	79%	–	Nc1nc(-c2cn3ccnc3c(Cc3ccc(F)cc3)n2)nc2c1C(c1ccc(Cl)cn1)(C1CC1)C(=O)N2 (single isomer, unassigned) [Example 108B, 4-amino-5-(5-chloropyridin-2-yl)-5-cyclopropyl-2-(8-(4-fluorobenzyl)imidazo[1,2-a]pyrazin-6-yl)-5H-pyrrolo[2,3-d]pyrimidin-6(7H)-one]
11 nM	–	151%	Nc1nc(-c2cn3ccnc3c(Cc3ccccc3F)n2)nc2c1C(c1ccc(Cl)cn1)(C1CC1)C(=O)N2 (single isomer, unassigned) [Example 110B, 4-amino-5-(5-chloropyridin-2-yl)-5-cyclopropyl-2-(8-(2-fluorobenzyl)imidazo[1,2-a]pyrazin-6-yl)-5H-pyrrolo[2,3-d]pyrimidin-6(7H)-one]
319 nM	–	101%	COC(=O)c1cccc(C2(C)C(=O)Nc3nc(-c4cn5ccnc5c(CCC(F)(F)C(F)(F)F)n4)nc(N)c32)c1 (single isomer, unassigned) [Example 270B, Methyl 3-(4-amino-5-methyl-6-oxo-2-(8-(3,3,4,4,4-pentafluorobutyl)imidazo[1,2-a]pyrazin-6-yl)-6,7-dihydro-5H-pyrrolo[2,3-d]pyrimidin-5-yl)benzoate]
469 nM	–	106%	CC1(c2ccc(Cl)cc2)C(=O)Nc2nc(-c3cn4ccnc4cn3)nc(N3CC(F)(F)C3)c21 (single isomer, unassigned) [Example 277A]
237 nM	–	126%	CC(C)c1nc(C2(C)C(=O)Nc3nc(-c4cn5ccnc5c(CCC(F)(F)C(F)(F)F)n4)nc(N)c32)no1 (single isomer, unassigned) [Example 321B, 4-amino-5-(5-isopropyl-1,2,4-oxadiazol-3-yl)-5-methyl-2-(8-(3,3,4,4,4-pentafluorobutyl)imidazo[1,2-a]pyrazin-6-yl)-5H-pyrrolo[2,3-d]pyrimidin-6(7H)-one]
1210 nM	–	83%	Cn1nnnc1C1(C2CC2)C(=O)Nc2nc(-c3cn4ccnc4c(CCC(F)(F)C(F)(F)F)n3)nc(N)c21 (single isomer, unassigned) [Example 325A, 4-amino-5-cyclopropyl-5-(1-methyl-1H-tetrazol-5-yl)-2-(8-(3,3,4,4,4-pentafluorobutyl)imidazo[1,2-a]pyrazin-6-yl]-5H-pyrrolo[2,3-d]pyrimidin-6(7H)-one]
486 nM	–	189%	COc1ccc(C2(C3CC3)C(=O)Nc3nc(-c4cn5ccnc5c(CCC(F)(F)C(F)(F)F)n4)nc(N)c32)nc1 (single isomer, unassigned) [Example 337A, 4-amino-5-cyclopropyl-5-(5-methoxypyridin-2-yl)-2-(8-(3,3,4,4,4-pentafluorobutyl)imidazo[1,2-a]pyrazin-6-yl)-5H-pyrrolo[2,3-d]pyrimidin-6(7H)-one]
1550 nM	–	175%	Cc1ncc(C2(C3CC3)C(=O)Nc3nc(-c4cn5ccnc5c(CCC(F)(F)C(F)(F)F)n4)nc(N)c32)cn1 (single isomer, unassigned) [Example 348B, 4-amino-5-cyclopropyl-5-(2-methylpyrimidin-5-yl)-2-(8-(3,3,4,4,4-pentafluorobutyl)imidazo[1,2-a]pyrazin-6-yl)-5H-pyrrolo[2,3-d]pyrimidin-6(7H)-one]
105 nM	–	239%	Nc1nc(-c2cn3ccnc3c(CCC(F)(F)C(F)(F)F)n2)nc2c1C(c1ccc(Cl)cc1)(C1CCC1)C(=O)N2 (single isomer, unassigned) [Example 350B, 4-amino-5-(4-chlorophenyl)-5-cyclobutyl-2-(8-(3,3,4,4,4-pentafluorobutyl)imidazo[1,2-a]pyrazin-6-yl)-5H-pyrrolo[2,3-d]pyrimidin-6(7H)-one]
985 nM	–	182%	Nc1nc(-c2cn3ccnc3c(CCC(F)(F)F)n2)nc2c1C(c1ccc(Cl)cc1)(C1CCC1)C(=O)N2 (single isomer, unassigned) [Example 351B, 4-amino-5-(4-chlorophenyl)-5-cyclobutyl-2-(8-(3,3,3-trifluoropropyl)imidazo[1,2-a]pyrazin-6-yl)-5H-pyrrolo[2,3-d]pyrimidin-6(7H)-one]
302 nM	–	96%	CCCCc1nc(-c2nc(N)c3c(n2)NC(=O)C3(c2cnc(C)cn2)C2CC2)cn2ccnc12 (single isomer, unassigned) [Example 352B, 4-amino-2-(8-butylimidazo[1,2-a]pyrazin-6-yl)-5-cyclopropyl-5-(5-methylpyrazin-2-yl)-5H-pyrrolo[2,3-d]pyrimidin-6(7H)-one]
680 nM	–	113%	Cc1cnc(C2(C3CC3)C(=O)Nc3nc(-c4cn5ccnc5c(CCCC(F)(F)F)n4)nc(N)c32)cn1 (single isomer, unassigned) [Example 357B, 4-amino-5-cyclopropyl-5-(5-methylpyrazin-2-yl)-2-(8-(4,4,4-trifluorobutyl)imidazo[1,2-a]pyrazin-6-yl)-5H-pyrrolo[2,3-d]pyrimidin-6(7H)-one]
20 nM	–	120%	CCCCc1nc(-c2nc(N)c3c(n2)NC(=O)C3(c2ccc(Cl)cc2)C2CCC2)cn2ccnc12 (single isomer, unassigned) [Example 358B, 4-amino-2-(8-butylimidazo[1,2-a]pyrazin-6-yl)-5-(4-chlorophenyl)-5-cyclobutyl-5H-pyrrolo[2,3-d]pyrimidin-6(7H)-one]
